Patent publication US20100113510A1 (priority 2006, published 2010)
Where two headings read alike, the source gives them in different places.

Target: T1, human muscarinic acetylcholine M3 receptor (M3-ACh) (Homo sapiens, UniProt P20309)
T1 construct: expressed in transfected cells; host or cells: CHO-K1 (Chinese Hamster Ovary) cell membranes
Assay: biochemical
Type: binding

[1] = pIC50 (M3 Binding IC50 classes)

T1 sequence (P20309 whole entry): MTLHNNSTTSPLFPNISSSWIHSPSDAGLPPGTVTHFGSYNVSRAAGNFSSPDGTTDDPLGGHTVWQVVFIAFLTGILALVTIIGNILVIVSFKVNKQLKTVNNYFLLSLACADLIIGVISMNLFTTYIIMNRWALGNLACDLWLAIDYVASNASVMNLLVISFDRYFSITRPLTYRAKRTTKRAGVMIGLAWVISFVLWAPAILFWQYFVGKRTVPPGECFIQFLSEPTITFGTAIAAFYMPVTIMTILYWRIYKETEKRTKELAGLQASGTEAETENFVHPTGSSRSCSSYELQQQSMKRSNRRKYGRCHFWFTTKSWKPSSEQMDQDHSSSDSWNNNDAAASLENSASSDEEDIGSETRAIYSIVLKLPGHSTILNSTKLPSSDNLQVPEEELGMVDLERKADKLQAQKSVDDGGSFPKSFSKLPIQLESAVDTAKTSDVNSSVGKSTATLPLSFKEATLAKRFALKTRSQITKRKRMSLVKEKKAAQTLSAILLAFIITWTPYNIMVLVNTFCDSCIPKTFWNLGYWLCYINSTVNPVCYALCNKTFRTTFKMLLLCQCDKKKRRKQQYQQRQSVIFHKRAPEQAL

| SMILES | IC50 [1] [nM] | IC50 (pIC50) [nM] | IC50 (read-out: pIC50 (M3 Binding IC50 classes) (converted)) [nM] |
| --- | --- | --- | --- |
| C[C@@](C(=O)O[C@H]1C[N+]2(CC(=O)Nc3ccc4ncnn4c3)CCC1CC2)(c1ccccc1)N1CCCCC1 [Example 13, (3R)-1-[2-Oxo-2-([1,2,4]triazolo[1,5-a]pyridin-6-ylamino)ethyl]-3-{[(2S)-2-phenyl-2-piperidin-1-ylpropanoyl]oxy}-1-azoniabicyclo[2.2.2]octane chloride] | < 2 |  |  |
| CC(C(=O)O[C@H]1C[N+]2(Cc3nc(-c4ccccc4)no3)CCC1CC2)(c1cccs1)N1CCCCC1 (stereo partly drawn) [Example 83] | < 2 |  |  |
| CC(C(=O)O[C@H]1C[N+]2(CC(=O)Nc3cccc(F)c3)CCC1CC2)(c1ccccc1)N1CCSCC1 (single isomer, unassigned) [Example 100] | < 2 |  |  |
| CC(C(=O)O[C@H]1C[N+]2(CC(=O)Nc3ccon3)CCC1CC2)(c1ccccc1)N1CCCCCC1 (single isomer, unassigned) [Example 90] | < 2 | 0.631 |  |
| CC(C(=O)O[C@H]1C[N+]2(CC(=O)Nc3ccon3)CCC1CC2)(c1ccccc1)N1CCCCCC1 (single isomer, unassigned) [Example 111] | 2 to 10 |  |  |
| Cn1c(=O)oc2cc(CC[N+]34CCC(CC3)[C@@H](OC(=O)[C@](C)(c3ccccc3)N3CCCCC3)C4)ccc21 [Example 25, (3R)-1-[2-(3-Methyl-2-oxo-2,3-dihydro-1,3-benzoxazol-6-yl)ethyl]-3-{[(2S)-2-phenyl-2-piperidin-1-ylpropanoyl]oxy}-1-azoniabicyclo(2.2.2]octane bromide] | < 2 |  |  |
| CC(C(=O)O[C@H]1C[N+]2(CCc3cccc(F)c3)CCC1CC2)(c1cccs1)N1CCSCC1 (single isomer, unassigned) [Example 51] | < 2 |  |  |
| CC(C(=O)O[C@H]1C[N+]2(CCc3cccc(Cl)c3)CCC1CC2)(c1ccccc1)N1CCCCCC1 (single isomer, unassigned) [Example 86] | < 2 |  |  |
| CC(C(=O)O[C@H]1C[N+]2(CC(=O)Nc3cccnn3)CCC1CC2)(c1ccccc1)N1CCSCC1 (single isomer, unassigned) [Example 101] | < 2 |  |  |
| CC(C(=O)O[C@H]1C[N+]2(CC(=O)Nc3ccon3)CCC1CC2)(c1ccccc1)N1CCSCC1 (single isomer, unassigned) [Example 102] | < 2 |  |  |
| Cc1nc(-c2ccccc2)c(NC(=O)C[N+]23CCC(CC2)[C@@H](OC(=O)[C@](C)(c2ccccc2)N2CCCCC2)C3)s1 [Example 18, (3R)-1-{2-[(2-Methyl-4-phenyl-1,3-thiazol-5-yl)amino]-2-oxoethyl}-3-{[(2S)-2-pheny1-2-piperidin-1-ylpropanoyl]oxy}-1-azoniabicyclo[2.2.2]octane chloride] | 2 to 10 |  |  |
| CC(C(=O)O[C@H]1C[N+]2(CCc3cccc(Cl)c3)CCC1CC2)(c1ccccc1)N1CCCCCC1 (single isomer, unassigned) [Example 87] |  |  | < 2 |
| CC(C(=O)O[C@H]1C[N+]2(CCCOc3ccccc3)CCC1CC2)(c1cccs1)N1CCSCC1 (single isomer, unassigned) [Example 49] | < 2 |  |  |
| CC(C(=O)O[C@H]1C[N+]2(CC(=O)Nc3noc4ccccc34)CCC1CC2)(c1cccs1)N1CCCCC1 (single isomer, unassigned) [Example 77] | < 2 |  |  |
| CC(C(=O)O[C@H]1C[N+]2(CCCc3ccccc3)CCC1CC2)(c1ccccc1)N1CCSCC1 (single isomer, unassigned) [Example 104] | < 2 |  |  |
| C[C@@](C(=O)O[C@H]1C[N+]2(CC(=O)Nc3ccc4[nH]ncc4c3)CCC1CC2)(c1ccccc1)N1CCCCC1 [Example 12, (3R)-1-[2-(1H-Indazol-5-ylamino)-2-oxoethyl]-3-{[(2S)-2-phenyl-2-piperidin-1-ylpropanoyl]oxy}-1-azoniabicyclo[2.2.2]octane chloride] | 2 to 10 |  |  |
| C[C@@](C(=O)O[C@H]1C[N+]2(CCCS(=O)(=O)c3ccc(C#N)cc3)CCC1CC2)(c1ccccc1)N1CCCCC1 [Example 35, (3R)-1-{3-[(4-Cyanophenyl)sulfonyl]propyl}-3-{[(2S)-2-phenyl-2-piperidin-1-ylpropanoyl]oxy}-1-azoniabicyclo[2.2.2]octane bromide] | 2 to 10 |  |  |
